The values that follow come from paper PMC11148078, “Potent activity of polymyxin B is associated with long-lived super-stoichiometric accumulation mediated by weak-affinity binding to lipid A” (Nature Communications, 2024).

Read-outs that look alike come from different tables or passages of the source. Bridge positions count the residues as written; N and C are the ends. Square brackets hold non-standard residues; d marks the D form. Peptide text beside a SMILES is read from it. * marks the point of attachment. X1 = CC[C@H](C)CCCCC(=O)*; Dab = NCC[C@H](N)C(=O)O

This assay addresses wt-OMVs. Briefly: SPR steady-state affinity of reversible (saw-tooth) binding, wt-OMVs. Set-up: species or system E. coli. The note with it: n=4, (SD), read-out: Apparent KD. The protocol:
An apparent-KD was measured for the reversible saw-tooth binding profile where polymyxin B was titrated over an OMV surface pre-saturated with the stable binding component (Supplementary Information Fig. S11B). […] No pre-saturation was necessary when using resistant-OMVs or PMBN as these lack the stable component (Fig. 2B, D–F).
Binding and kinetic analysis of SPR-OMV assays
To determine the apparent- KD of the reversible binding event of polymyxin B, single-cycle kinetics were performed as described in Materials and Methods. After OMVs were loaded, 5 µM polymyxin B was injected for 360 sec ([…] flow rate) followed by 120 sec dissociations to saturate the stable-binding population prior to the sample injections. The base-to-peak value of each trace was determined from double-referenced traces (reference 1: - OMVs/ + compound channel; reference 2: + OMVs/ - compound) exported from the Biacore S200 evaluation software into PRISM 9 software. The change in RU with each pulse was plotted over the concentration and the KD determined by fitting a non-linear regression, one-site total function with background parameter set to 0 (GraphPad Prism version 9.3.1 for Mac, GraphPad Software, San Diego, California USA, www.graphpad.com). […]

For the molecule `CC(C)C[C@@H]1NC(=O)[C@@H](Cc2ccccc2)NC(=O)[C@H](CCN)NC(=O)[C@@H](NC(=O)[C@H](CCN)NC(=O)[C@@H](N)[C@@H](C)O)CCNC(=O)[C@H]([C@@H](C)O)NC(=O)[C@H](CCN)NC(=O)[C@H](CCN)NC1=O` [PMBN] (H-T[Dab][Dab][Dab][dF]L[Dab][Dab]T; lactam 3-C), the Kd (no pre-saturation) stood at 288 nM.
Take `CC[C@H](C)CCCCC(=O)N[C@@H](CCN)C(=O)N[C@H](C(=O)N[C@@H](CCN)C(=O)N[C@H]1CCNC(=O)[C@H]([C@@H](C)O)NC(=O)[C@H](CCN)NC(=O)[C@H](CCN)NC(=O)[C@H](CC(C)C)NC(=O)[C@@H](Cc2ccccc2)NC(=O)[C@H](CCN)NC1=O)[C@@H](C)O` [Polymyxin B] (X1-[Dab]T[Dab][Dab][Dab][dF]L[Dab][Dab]T; lactam 4-C (inferred); N-terminus assumed): the Kd (isolated reversible binding, OMVs pre-saturated with 5 µM polymyxin B) stood at 517 nM.
